From patent US20230322846A9, “NEUROACTIVE STEROIDS AND THEIR METHODS OF USE” (SAGE THERAPEUTICS, INC., priority 2018, published 2023) come the findings set out here.

As a reminder, the IC50 is the point on the concentration scale where inhibition reaches its midpoint.

In this assay the target is [35S]-TBPS binding, rat brain cortical membranes. In words: Steroid inhibition of [35S]-TBPS binding. To be noted: 3 nM [35S]-TBPS, in the presence of 5 mM GABA. In outline:
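Rat cortical P2 membranes incubated 90 min at room temperature with 3 nM [35S]-TBPS, […] and test compound (0.5% DMSO final) in NaCl/Na–K phosphate pH 7.4; nonspecific binding with […]. Filter-bound radioactivity counted; IC50 and Imax from nonlinear fits, mean ± SEM.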

As to `COC[C@@]1(O)CC[C@H]2[C@H](CC[C@@H]3[C@@H]2CC[C@]2(C)[C@@H](CCn4nnc(C)n4)CC[C@@H]32)C1` [Example 47, (3R,5R,8R,9R,10S,13R,14S,17R)-3-(methoxymethyl)-13-methyl-17-(2-(5-methyl-2H-tetrazol-2-yl)ethyl)hexadecahydro-1H-cyclopenta[a]phenanthren-3-ol], the IC50 is less than 100 nM.

`C[C@H](Cn1cc(C#N)cn1)[C@H]1CC[C@H]2[C@@H]3CC[C@@H]4C[C@@](O)(CC5CC5)CC[C@@H]4[C@H]3CC[C@]12C` [Example 304, 1-((S)-2-((3S,5R,8R,9R,10S,13S,14S,17R)-3-(cyclopropylmethyl)-3-hydroxy-13-methylhexadecahydro-1H-cyclopenta[a]phenanthren-17-yl)propyl)-1H-pyrazole-4-carbonitrile]: the IC50 is less than 100 nM.

Take `C[C@@H](NC(=O)c1ccc(C#N)cc1F)[C@H]1CC[C@H]2[C@@H]3CC[C@@H]4C[C@](C)(O)CC[C@@H]4[C@H]3CC[C@]12C` [Example 130]: the IC50 was less than 100 nM.

On to `C[C@@]1(O)CC[C@H]2[C@H](CC[C@@H]3[C@@H]2CC[C@]2(C)[C@@H]([C@@H](C#N)Cn4cc(C#N)cn4)CC[C@@H]32)C1` [Example 356, 1-((R)-2-cyano-2-((3R,5R,8R,9R,10S,13S,14S,17R)-3-hydroxy-3,13-dimethylhexadecahydro-1H-cyclopenta[a]phenanthren-17-yl)ethyl)-1H-pyrazole-4-carbonitrile], for which the IC50 was less than 100 nM.

As for `Cc1cc(C#N)ccc1N[C@@H](C)[C@H]1CC[C@H]2[C@@H]3CC[C@@H]4C[C@](C)(O)CC[C@@H]4[C@H]3CC[C@]12C` [Example 251], the IC50 is 100 to 1000 nM.

For the compound `COC[C@@]1(O)CC[C@H]2[C@H](CC[C@@H]3[C@@H]2CC[C@]2(C)[C@@H]([C@@H](C)Cc4nc(C)ccc4Cl)CC[C@@H]32)C1` [Example 424], the IC50 was less than 100 nM.

For `Cc1cc(C#N)ccc1N[C@H](C)[C@H]1CC[C@H]2[C@@H]3CC[C@@H]4C[C@](C)(O)CC[C@@H]4[C@H]3CC[C@]12C` [Example 250], the IC50 was less than 100 nM.

Take `CCOC[C@@]1(O)CC[C@H]2[C@H](CC[C@@H]3[C@@H]2CC[C@]2(C)[C@@H]([C@@H](C)NC(=O)c4ccccc4F)CC[C@@H]32)C1` [Example 42, N—((R)-1-((3R,5R,8R,9R,10S,13S,14S,17S)-3-(ethoxymethyl)-3-hydroxy-13-methylhexadecahydro-1H-cyclopenta[a]phenanthren-17-yl)ethyl)-2-fluorobenzamide]: the IC50 lay within 100 to 1000 nM.

Turning to `Cc1cc(C[C@@H](C)[C@H]2CC[C@H]3[C@@H]4CC[C@@H]5C[C@](C)(O)CC[C@@H]5[C@H]4CC[C@]23C)sn1` [Example 451], the IC50 lay in the range of 100 to 1000 nM.

With `COC[C@@]1(O)CC[C@H]2[C@H](CC[C@@H]3[C@@H]2CC[C@]2(C)[C@@H]([C@H](C)Cc4nc(C)ccc4Cl)CC[C@@H]32)C1` [Example 425], the IC50 is 1000 to 10000 nM.

As to `C[C@H](NC(=O)c1ccc(F)cn1)[C@H]1CC[C@H]2[C@@H]3CC[C@@H]4C[C@](C)(O)CC[C@@H]4[C@H]3CC[C@]12C` [Example 124], the IC50 lay in the range of 100 to 1000 nM.

With `C[C@H]([C@H]1CC[C@H]2[C@@H]3CC[C@@H]4C[C@](C)(O)CC[C@@H]4[C@H]3CC[C@]12C)N(C)S(=O)(=O)c1ccccc1` [Example 22, N—((R)-1-((3R,5R,8R,9R,10S,13S,14S,17S)-3-hydroxy-3,13-dimethylhexadecahydro-1H-cyclopenta[a]phenanthren-17-yl)ethyl)-N-methylbenzenesulfonamide], the IC50 is less than 100 nM.

In the case of `CCC[C@@]1(O)CC[C@H]2[C@H](CC[C@@H]3[C@@H]2CC[C@]2(C)[C@@H]([C@@H](C)Cc4ccc(C(F)(F)F)nc4)CC[C@@H]32)C1` [Example 410], the IC50 lay in the range of 100 to 1000 nM.

For `COC[C@@]1(O)CC[C@H]2[C@H](CC[C@@H]3[C@@H]2CC[C@]2(C)[C@@H]([C@@H](C)Cc4ccc(C#N)nc4)CC[C@@H]32)C1` [Example 404, 5-((S)-2-((3R,5R,8R,9R,10S,13R,14S,17R)-3-hydroxy-3-(methoxymethyl)-13-methylhexadecahydro-1H-cyclopenta[a]phenanthren-17-yl)propyl)picolinonitrile], the IC50 was less than 100 nM.

For `CC[C@@]1(O)CC[C@H]2[C@@H](CC[C@@H]3[C@@H]2CC[C@]2(C)[C@@H]([C@@H](C)Cn4nnnc4C)CC[C@@H]32)C1` [Example 335, (3R,5S,8R,9R,10S,13S,14S,17R)-3-ethyl-13-methyl-17-((R)-1-(5-methyl-1H-tetrazol-1-yl)propan-2-yl)hexadecahydro-1H-cyclopenta[a]phenanthren-3-ol], the IC50 fell in the range of 100 to 1000 nM.

Take `CCOC[C@@]1(O)CC[C@H]2[C@H](CC[C@@H]3[C@@H]2CC[C@]2(C)[C@@H]([C@@H](C)Nc4cccnc4F)CC[C@@H]32)C1` [Example 262]: the IC50 is less than 100 nM.

For `COc1cncc(C[C@@H](C)[C@H]2CC[C@H]3[C@@H]4CC[C@@H]5C[C@](C)(O)CC[C@@H]5[C@H]4CC[C@]23C)c1` [Example 433], the IC50 is less than 100 nM.

As to `COC[C@@]1(O)CC[C@H]2[C@H](CC[C@@H]3[C@@H]2CC[C@]2(C)[C@@H]([C@H](C)Nc4ccc(C#N)cc4C)CC[C@@H]32)C1` [Example 253], the IC50 is 1000 to 10000 nM.

Regarding `C[C@H]([C@H]1CC[C@H]2[C@@H]3CC[C@@H]4C[C@](C)(O)CC[C@@H]4[C@H]3CC[C@]12C)n1ncc(C#N)c1N` [Example 154, 5-amino-1-((R)-1-((3R,5R,8R,9R,10S,13S,14S,17S)-3-hydroxy-3,13-dimethylhexadecahydro-1H-cyclopenta[a]phenanthren-17-yl)ethyl)-1H-pyrazole-4-carbonitrile], the IC50 lay within 1000 to 10000 nM.

As for `CCOC[C@@]1(O)CC[C@H]2[C@H](CC[C@@H]3[C@@H]2CC[C@]2(C)[C@@H]([C@@H](C)Cc4ccc(C)nc4C#N)CC[C@@H]32)C1` [Example 414], the concentration for half-maximal inhibition (IC50) was less than 100 nM.

On to `C[C@H](Nc1cccc(C#N)c1)[C@H]1CC[C@H]2[C@@H]3CC[C@@H]4C[C@](C)(O)CC[C@@H]4[C@H]3CC[C@]12C` [Example 201], for which the IC50 lay in the range of 100 to 1000 nM.

Turning to `C[C@H](NC(=O)c1ccc(C#N)cn1)[C@H]1CC[C@H]2[C@@H]3CC[C@@H]4C[C@](C)(O)CC[C@@H]4[C@H]3CC[C@]12C` [Example 121], the IC50 fell in the range of 1000 to 10000 nM.

Regarding `C[C@@H]([C@H]1CC[C@H]2[C@@H]3CC[C@@H]4C[C@](C)(O)CC[C@@H]4[C@H]3CC[C@]12C)N(C)S(=O)(=O)c1ccccc1` [Example 21, N—((S)-1-((3R,5R,8R,9R,10S,13S,14S,17S)-3-hydroxy-3,13-dimethylhexadecahydro-1H-cyclopenta[a]phenanthren-17-yl)ethyl)-N-methylbenzenesulfonamide], the IC50 is 1000 to 10000 nM.
